Patent US12391685B2, “Inhibitors of RNA-guided nuclease target binding and uses thereof” (THE BROAD INSTITUTE, INC., priority 2018, dated 2025)

How the values were obtained:
[1] = Aggregation by dynamic light scattering in PBS; conditions: 40-100 μM tested
[2] = target: T1, SpCas9 (Streptococcus pyogenes serotype M1, UniProt Q99ZW2); experiment: NHEJ assay in HEK293T cells; format: cell-based, S. pyogenes; conditions: 2-10 μM, 24 h
Protocol: NHEJ assay. Approximately 8,000 cells/well were seeded in a 96-well plate 24 h before transient transfection with a total 100 ng of DN66 (mCherry—TAG—GFP reporter) and DN78 (SpCas9 and gRNA) plasmids (1:1) using Lipofectamine 2000 (Life Technologies) (Nguyen et al., 2016b). Transfected cells were incubated with the indicated amount of small molecule or DMSO for 24 h. Cells were then fixed using 4% paraformaldehyde and imaged with the HCS NuclearMask™ Blue Stain (Life Technologies) as the nuclear counter-staining agent. Imaging was performed with an ImageXpress Micro automated microscope (Molecular Devices) at 4× magnification under three excitation channels (blue, green and red) with 9 acquisition sites per well. Images were analyzed in the MetaXpress software to determine the % NHEJ and the data were plotted using GraphPad Prism 6. The Z′-value was calculated following the formula: Z′=1−(3(σ1+σ2))/(|μ1−μ2|) where σ1 and σ2 are the standard deviations of DN66 transfected wells and (DN66+DN78) transfected wells respectively. μ1 and μ2 are the mean % GFP cell population for DN66 transfected wells and (DN66+DN78) transfected wells respectively.

[3] = tested on: U2OS.eGFP.PEST cells and HEK293T cells; experiment: Cell viability (ATP content); conditions: 5-20 μM, 24 h
[4] = target: FnCpf1 (Francisella tularensis subsp. novicida, UniProt A0Q7Q2); format: cell-based; conditions: 6-20 μM, 30 h
[5] = target: T1, SpCas9; format: cell-based, S. pyogenes; design: made in house; host or cells: E. coli Rosetta (DE3); conditions: not told
Description: FIGS. 8A-8H—Structure-activity analysis and inhibition of dCas9-based transcriptional upregulation. (FIG. 8A) Structure-activity relationship studies of BRD3433 in the eGFP-disruption assay in U2OS.eGFP.PEST cells. The set of functional groups on top represents variation at the 1-N-cap position (R^1) whereas those at the bottom represents the functional group variation at the 8-position (R^2). Bar plot depicts the reduction in the activity of different structural analogs with respect to that of BRD3433. Asterisk-labeled compounds contain a methyl group at the 4-N position, while others have a proton. The data are an average of two biological replicates. (FIG. 8B) Inhibition of dSpCas9-based transcriptional upregulation of HBG1 gene in HEK293FT cells by BRD7087. Cells were transfected with dSpCas9, MS2.p65.HSF1.GFP plasmids along with either RFP or HBG1 gRNA plasmid and incubated in the presence of the small molecules at the indicated concentration for 48 h before RT-qPCR analysis. Data represents average of 6 technical replicates. Y-axis represents % fold change in the compound activity with respect to BRD7087. […] (FIG. 8D) Cellular impermeability of the anti-CRISPR protein AcrllA4 assessed by lack of SpCas9 inhibition in the eGFP-disruptoin assay when AcrLLA4 is incubated in the media. […] (FIG. 8F) Human plasma stability of compound as determined by UPLC/MS in MRM method. […]

T1 sequence (Q99ZW2 whole entry): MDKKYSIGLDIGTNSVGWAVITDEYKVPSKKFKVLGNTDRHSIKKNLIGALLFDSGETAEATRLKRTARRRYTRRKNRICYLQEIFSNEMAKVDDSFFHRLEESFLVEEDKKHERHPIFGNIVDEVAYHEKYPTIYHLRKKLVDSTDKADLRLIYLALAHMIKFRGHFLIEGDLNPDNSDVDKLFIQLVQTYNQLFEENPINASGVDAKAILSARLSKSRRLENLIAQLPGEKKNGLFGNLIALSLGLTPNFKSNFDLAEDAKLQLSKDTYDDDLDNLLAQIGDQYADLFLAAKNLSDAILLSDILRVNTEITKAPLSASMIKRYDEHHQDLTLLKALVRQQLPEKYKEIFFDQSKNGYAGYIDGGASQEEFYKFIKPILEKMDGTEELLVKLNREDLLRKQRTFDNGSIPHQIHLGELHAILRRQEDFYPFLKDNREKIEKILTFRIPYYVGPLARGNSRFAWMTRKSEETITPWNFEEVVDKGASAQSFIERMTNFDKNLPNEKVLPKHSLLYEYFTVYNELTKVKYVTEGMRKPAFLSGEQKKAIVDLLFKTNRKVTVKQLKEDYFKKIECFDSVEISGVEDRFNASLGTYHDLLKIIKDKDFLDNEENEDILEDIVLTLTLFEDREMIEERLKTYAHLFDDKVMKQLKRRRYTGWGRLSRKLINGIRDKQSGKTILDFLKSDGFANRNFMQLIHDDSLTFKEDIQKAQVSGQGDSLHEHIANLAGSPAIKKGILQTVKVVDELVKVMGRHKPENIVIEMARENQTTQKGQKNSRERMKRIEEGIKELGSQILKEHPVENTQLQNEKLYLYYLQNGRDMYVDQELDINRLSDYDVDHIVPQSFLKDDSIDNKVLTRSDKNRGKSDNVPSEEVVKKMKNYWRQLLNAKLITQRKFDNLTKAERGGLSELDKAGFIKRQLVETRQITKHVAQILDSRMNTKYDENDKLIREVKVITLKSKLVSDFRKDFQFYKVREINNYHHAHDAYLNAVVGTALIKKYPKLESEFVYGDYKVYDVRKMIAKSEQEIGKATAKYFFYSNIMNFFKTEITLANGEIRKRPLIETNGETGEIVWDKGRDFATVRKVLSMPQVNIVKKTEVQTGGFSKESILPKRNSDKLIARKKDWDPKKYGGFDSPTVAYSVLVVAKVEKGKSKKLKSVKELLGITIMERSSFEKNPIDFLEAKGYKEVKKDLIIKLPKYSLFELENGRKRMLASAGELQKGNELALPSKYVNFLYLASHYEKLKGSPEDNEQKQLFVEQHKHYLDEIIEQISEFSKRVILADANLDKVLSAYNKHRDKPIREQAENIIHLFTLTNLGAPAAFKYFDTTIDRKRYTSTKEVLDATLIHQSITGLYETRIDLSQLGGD
FnCpf1, sequence (A0Q7Q2 whole entry, looked up): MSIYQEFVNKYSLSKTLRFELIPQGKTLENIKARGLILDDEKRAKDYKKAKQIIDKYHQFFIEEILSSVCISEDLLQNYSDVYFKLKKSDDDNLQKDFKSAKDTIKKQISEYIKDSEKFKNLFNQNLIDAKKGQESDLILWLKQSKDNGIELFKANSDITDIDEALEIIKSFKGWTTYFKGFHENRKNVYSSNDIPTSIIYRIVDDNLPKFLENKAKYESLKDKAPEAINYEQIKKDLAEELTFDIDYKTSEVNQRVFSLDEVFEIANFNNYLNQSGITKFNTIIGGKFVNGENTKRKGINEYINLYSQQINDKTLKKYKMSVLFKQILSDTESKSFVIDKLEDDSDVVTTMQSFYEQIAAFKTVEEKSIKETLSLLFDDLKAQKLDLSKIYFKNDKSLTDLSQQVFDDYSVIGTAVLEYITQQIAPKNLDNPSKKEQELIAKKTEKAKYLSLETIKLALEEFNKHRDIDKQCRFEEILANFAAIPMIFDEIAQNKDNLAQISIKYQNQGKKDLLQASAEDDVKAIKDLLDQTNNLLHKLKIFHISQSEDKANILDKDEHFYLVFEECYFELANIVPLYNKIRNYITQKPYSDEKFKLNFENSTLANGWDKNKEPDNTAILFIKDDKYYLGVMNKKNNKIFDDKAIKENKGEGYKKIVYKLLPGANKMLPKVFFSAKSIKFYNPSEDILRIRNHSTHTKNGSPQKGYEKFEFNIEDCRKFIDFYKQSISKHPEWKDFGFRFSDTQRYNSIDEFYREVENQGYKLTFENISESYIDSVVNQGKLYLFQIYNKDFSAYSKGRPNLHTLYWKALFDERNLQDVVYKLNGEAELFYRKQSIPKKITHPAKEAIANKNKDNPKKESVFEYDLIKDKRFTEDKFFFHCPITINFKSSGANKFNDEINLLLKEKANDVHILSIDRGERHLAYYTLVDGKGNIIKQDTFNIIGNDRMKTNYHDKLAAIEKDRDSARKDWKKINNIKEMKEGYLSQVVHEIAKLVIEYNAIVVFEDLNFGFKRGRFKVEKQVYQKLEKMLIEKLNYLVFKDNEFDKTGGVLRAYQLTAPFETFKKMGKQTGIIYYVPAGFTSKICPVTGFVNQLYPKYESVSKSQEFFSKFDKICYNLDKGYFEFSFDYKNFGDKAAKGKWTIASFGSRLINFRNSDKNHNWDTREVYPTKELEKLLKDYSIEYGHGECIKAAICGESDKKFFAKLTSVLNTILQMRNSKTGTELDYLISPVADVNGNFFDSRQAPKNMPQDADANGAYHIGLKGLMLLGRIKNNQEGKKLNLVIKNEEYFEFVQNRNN

SMILES	concentration beyond which aggregates form [1] [µM]	no detectable aggregation up to [1] [µM]	inhibition of SpCas9 in the NHEJ assay (in words) [2]	cytotoxicity (in words) [3]	inhibition of FnCpf1 (in words) [4]	cell permeability (in words) [5]
OC[C@H]1Nc2ccc(-c3cccc(F)c3)cc2[C@H]2[C@@H]1CCN2Cc1ccncc1 [BRD7087, ((3aR,4S,9bR)-8-(3-Fluorophenyl)-1-(pyridin-4-ylmethyl)-2,3,3a,4,5,9b-hexahydro-1H-pyrrolo[3,2-c]quinolin-4-yl) methanol]	> 80	~60	dose-dependent inhibition	non-cytotoxic	–	–
Cc1ccc(S(=O)(=O)N2CC[C@@H]3[C@H](CO)Nc4ccc(-c5ccccc5F)cc4[C@@H]32)cc1 [BRD0539, ((3aR,4R,9bR)-8-(2-fluorophenyl)-1-tosyl-2,3,3a,4,5,9b-hexahydro-1H-pyrrolo[3,2-c]quinolin-4-yl) methanol]	–	–	–	–	unable to inhibit	cell permeable
